In patent US20190275012A9, “SUBSTITUTED THIAZOLO-PYRIDINE COMPOUNDS AS MALT1 INHIBITORS” (Lupin Limited, priority 2016, published 2019):

Tests used:
[1] = tested on: NF-kB transcriptional activity in HEK-293-NF-kB-Luc cell line overexpressing MALT1; assay: NF-kB reporter assay (luciferase, MALT1 stably overexpressed); type: cell-based; conditions: Homo sapiens, 24 h, HEK-293-NF-kB-Luc cells stably overexpressing MALT1, 24 h treatment, Bright Glo luminescence; read-out: NF-kB inhibition IC50
Method in brief: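 HEK-293-NF-κB-Luc cells stably overexpressing MALT1 were seeded overnight, then exposed to test compounds for 24 h. Bright Glo added 10 min at ambient temperature and luminescence read; % inhibition calculated against 0.1% DMSO controls.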

OCI-Ly-10 cells = assay: Anticancer assay (14 days), cell viability by CCK-8; type: cell-based; conditions: Homo sapiens, OCI-Ly10, 336 h, 14 days treatment, fresh treatment every 5th day, CCK-8 viability, read-out: Ly-10 (14d) inhibition IC50
Experimental: OCI-Ly-10 cells (UHN, Canada) seeded in culture media (IMDM+20% FBS) in 96-well plates were treated with various concentrations of the test compounds. Cells were treated for a period of 14 days (13-15 days depending on the confluency of cells) with fresh treatments every 5th day. After the first treatment, for all subsequent treatments, the cells were centrifuged, the spent media was removed and fresh media containing the test compound was added. Cell viability was assessed using CCK-8 kit (Dojindo Laboratories, China) as per manufacturer's instructions. Plates were read in colorimeter and absorbance was detected. (Detection at 450 nm; Background correction at 650 nm). % inhibition was calculated relative to the samples containing media with 0.1% DMSO alone as per the following formula

full length MALT1 enzyme = molecular target: T1, full length MALT1 enzyme (Homo sapiens, UniProt Q9UDY8); assay: MALT1 biochemical assay (fluorescence based, Ac-Leu-Arg-Ser-Arg-AMC cleavage); conditions: full length MALT1 protein, 2 h pre-incubation at RT, tetrapeptide substrate Ac-Leu-Arg-Ser-Arg-AMC, read-out: Malt 1 inhibition IC50
T1 construct: a fluorescence based assay with full length MALT1 enzyme
T1 sequence (Q9UDY8 1-824): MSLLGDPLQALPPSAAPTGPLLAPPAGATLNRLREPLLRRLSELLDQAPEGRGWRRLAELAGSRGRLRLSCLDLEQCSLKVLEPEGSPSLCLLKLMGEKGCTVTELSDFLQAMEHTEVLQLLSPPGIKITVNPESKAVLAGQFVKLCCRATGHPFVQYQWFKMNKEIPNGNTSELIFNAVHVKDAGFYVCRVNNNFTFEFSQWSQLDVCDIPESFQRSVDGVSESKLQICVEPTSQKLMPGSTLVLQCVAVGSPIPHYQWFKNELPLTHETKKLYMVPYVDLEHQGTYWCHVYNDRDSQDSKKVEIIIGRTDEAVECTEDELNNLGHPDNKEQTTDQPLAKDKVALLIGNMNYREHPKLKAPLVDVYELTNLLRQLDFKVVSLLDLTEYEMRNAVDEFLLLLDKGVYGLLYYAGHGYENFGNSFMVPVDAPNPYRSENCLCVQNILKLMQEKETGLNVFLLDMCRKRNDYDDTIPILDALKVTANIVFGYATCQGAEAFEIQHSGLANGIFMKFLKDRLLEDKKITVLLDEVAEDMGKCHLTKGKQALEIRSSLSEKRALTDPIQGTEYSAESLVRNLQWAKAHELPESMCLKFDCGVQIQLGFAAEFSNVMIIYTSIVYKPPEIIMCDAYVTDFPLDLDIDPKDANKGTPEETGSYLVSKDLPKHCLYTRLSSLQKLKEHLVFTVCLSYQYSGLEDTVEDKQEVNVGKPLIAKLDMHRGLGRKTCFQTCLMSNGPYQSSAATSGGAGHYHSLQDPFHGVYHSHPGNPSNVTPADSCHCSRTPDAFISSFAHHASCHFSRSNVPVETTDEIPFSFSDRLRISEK
Method in brief: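 Full-length MALT1 (100-300 ng/well) was pre-incubated with compound for 2 h at RT, then 100 μM Ac-LRSR-AMC was added for 4-12 h. Buffer was 50 mM MES, 150 mM NaCl, 0.1% CHAPS, 1 M ammonium citrate, 10 mM DTT, pH 7, with 0.5% DMSO. IC50 was derived from AMC fluorescence (ex 360/em 460 nm).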

CCOC(C)c1c(NC(=O)Nc2cnc(OC)c(Cl)c2)cnc2sc(C)nc12 (racemic) [Compound 162, 1-(5-Chloro-6-methoxypyridin-3-yl)-3-(7-(1-ethoxyethyl)-2-methylthiazolo[5,4-b]pyridin-6-yl)urea]
IC50 [1]: 1 to 100 nM
IC50 (OCI-Ly-10 cells): 501 to 1500 nM
IC50 (full length MALT1 enzyme): 1 to 50 nM

COC(c1c(NC(=O)Nc2cnc(-n3nccn3)c(C(F)(F)F)c2)cnc2sc(C)nc12)C(C)(C)C (single isomer, unassigned) [Compound 57b, 1-(6-(2H-1,2,3-Triazol-2-yl)-5-(trifluoromethyl)pyridin-3-yl)-3-(7-(1-methoxy-2,2-dimethylpropyl)-2-methylthiazolo[5,4-b]pyridin-6-yl)urea]
IC50 [1]: 1 to 100 nM
IC50 (OCI-Ly-10 cells): 26 to 100 nM
IC50 (full length MALT1 enzyme): 1 to 50 nM

CCC(c1c(NC(=O)Nc2cnc(-n3nccn3)c(C(F)(F)F)c2)cnc2sc(C)nc12)N(C)C (single isomer, unassigned) [Compound 75b, 1-(6-(2H-1,2,3-Triazol-2-yl)-5-(trifluoromethyl)pyridin-3-yl)-3-(7-(1-(dimethylamino)propyl)-2-methylthiazolo[5,4-b]pyridin-6-yl)urea]
IC50 [1]: 1 to 100 nM
IC50 (OCI-Ly-10 cells): 26 to 100 nM
IC50 (full length MALT1 enzyme): 51 to 100 nM

Cc1nc2c(C(C3CC3)N(C)C)c(NC(=O)Nc3cnc(-n4nccn4)c(C(F)(F)F)c3)cnc2s1 (single isomer, unassigned) [Compound 76b, 1-(6-(2H-1,2,3-Triazol-2-yl)-5-(trifluoromethyl)pyridin-3-yl)-3-(7-(cyclopropyl(dimethylamino)methyl)-2-methylthiazolo[5,4-b]pyridin-6-yl)urea]
IC50 [1]: 1 to 100 nM
IC50 (OCI-Ly-10 cells): 0.1 to 25 nM
IC50 (full length MALT1 enzyme): 1 to 50 nM

COC(c1c(NC(=O)Nc2cnc(-n3nccn3)c(Cl)c2)cnc2sc(C)nc12)C(C)C (single isomer, unassigned) [Compound 79b, 1-(5-Chloro-6-(2H-1,2,3-triazol-2-yl)pyridin-3-yl)-3-(7-(1-methoxy-2-methylpropyl)-2-methylthiazolo[5,4-b]pyridin-6-yl)urea]
IC50 [1]: 1 to 100 nM
IC50 (OCI-Ly-10 cells): 26 to 100 nM
IC50 (full length MALT1 enzyme): 1 to 50 nM

COc1nc(-n2nccn2)c(C(F)(F)F)cc1NC(=O)Nc1cnc2sc(C)nc2c1C(OC)C(C)C (single isomer, unassigned) [Compound 80b, 1-(7-(1-Methoxy-2-methylpropyl)-2-methylthiazolo[5,4-b]pyridin-6-yl)-3-(2-methoxy-6-(2H-1,2,3-triazol-2-yl)-5-(trifluoromethyl)pyridin-3-yl)urea]
IC50 [1]: 1 to 100 nM
IC50 (OCI-Ly-10 cells): 26 to 100 nM
IC50 (full length MALT1 enzyme): 1 to 50 nM

COc1nc(-n2nccn2)c(Cl)cc1NC(=O)Nc1cnc2sc(C)nc2c1C(OC)C(C)C (single isomer, unassigned) [Compound 81b, 1-(5-Chloro-2-methoxy-6-(2H-1,2,3-triazol-2-yl)pyridin-3-yl)-3-(7-(1-methoxy-2-methylpropyl)-2-methylthiazolo[5,4-b]pyridin-6-yl)urea]
IC50 [1]: 1 to 100 nM
IC50 (OCI-Ly-10 cells): 26 to 100 nM
IC50 (full length MALT1 enzyme): 1 to 50 nM

COC(c1ccc(F)cc1)c1c(NC(=O)Nc2cnc(-n3nccn3)c(C(F)(F)F)c2)cnc2sc(C)nc12 (single isomer, unassigned) [Compound 85a, 1-(6-(2H-1,2,3-Triazol-2-yl)-5-(trifluoromethyl)pyridin-3-yl)-3-(7-((4-fluorophenyl)(methoxy)methyl)-2-methylthiazolo[5,4-b]pyridin-6-yl)urea]
IC50 [1]: 1 to 100 nM
IC50 (OCI-Ly-10 cells): 101 to 250 nM
IC50 (full length MALT1 enzyme): 1 to 50 nM

COC(C)(c1c(NC(=O)Nc2ccc(-n3nccn3)c(C(F)(F)F)c2)cnc2sc(C)nc12)C1CC1 (single isomer, unassigned) [Compound 94b, 1-(4-(2H-1,2,3-triazol-2-yl)-3-(trifluoromethyl)phenyl)-3-(7-(1-cyclopropyl-1-methoxyethyl)-2-methylthiazolo[5,4-b]pyridin-6-yl)urea]
IC50 [1]: 1 to 100 nM
IC50 (OCI-Ly-10 cells): 26 to 100 nM
IC50 (full length MALT1 enzyme): 1 to 50 nM

COC(c1c(NC(=O)Nc2cnc(-n3nccn3)c(C(F)(F)F)c2)cnc2sc(C)nc12)C(F)(F)F (single isomer, unassigned) [Compound 95b, 1-(6-(2H-1,2,3-triazol-2-yl)-5-(trifluoromethyl)pyridin-3-yl)-3-(2-methyl-7-(2,2,2-trifluoro-1-methoxyethyl)thiazolo[5,4-b]pyridin-6-yl)urea]
IC50 [1]: 1 to 100 nM
IC50 (OCI-Ly-10 cells): 0.1 to 25 nM
IC50 (full length MALT1 enzyme): 1 to 50 nM

COC(C)c1c(NC(=O)Nc2ccc(-n3nccn3)c(C(F)(F)F)c2)cnc2sc(C)nc12 (single isomer, unassigned) [Compound 143b, 1-(4-(2H-1,2,3-Triazol-2-yl)-3-(trifluoromethyl)phenyl)-3-(7-(1-methoxyethyl)-2-methylthiazolo[5,4-b]pyridin-6-yl)urea]
IC50 [1]: 1 to 100 nM
IC50 (OCI-Ly-10 cells): 0.1 to 25 nM
IC50 (full length MALT1 enzyme): 1 to 50 nM

COC(c1c(NC(=O)Nc2ccc(-n3nccn3)c(Cl)c2)cnc2sc(C)nc12)C1CC1 (single isomer, unassigned) [Compound 144b, 1-(3-Chloro-4-(2H-1,2,3-triazol-2-yl)phenyl)-3-(7-(cyclopropyl(methoxy)methyl)-2-methylthiazolo[5,4-b]pyridin-6-yl)urea]
IC50 [1]: 1 to 100 nM
IC50 (OCI-Ly-10 cells): 0.1 to 25 nM
IC50 (full length MALT1 enzyme): 1 to 50 nM

CCC(OC)c1c(NC(=O)Nc2cnc(-n3nccn3)c(Cl)c2)cnc2sc(C)nc12 (single isomer, unassigned) [Compound 145b, 1-(5-Chloro-6-(2H-1,2,3-triazol-2-yl)pyridin-3-yl)-3-(7-(1-methoxypropyl)-2-methylthiazolo[5,4-b]pyridin-6-yl)urea]
IC50 [1]: 1 to 100 nM
IC50 (OCI-Ly-10 cells): 0.1 to 25 nM
IC50 (full length MALT1 enzyme): 1 to 50 nM

CCC(OC)c1c(NC(=O)Nc2ccc(-n3nccn3)c(C(F)(F)F)c2)cnc2sc(C)nc12 (single isomer, unassigned) [Compound 147b, 1-(4-(2H-1,2,3-Triazol-2-yl)-3-(trifluoromethyl)phenyl)-3-(7-(1-methoxypropyl)-2-methylthiazolo[5,4-b]pyridin-6-yl)urea]
IC50 [1]: 1 to 100 nM
IC50 (OCI-Ly-10 cells): 0.1 to 25 nM
IC50 (full length MALT1 enzyme): 1 to 50 nM

COC(c1c(NC(=O)Nc2ccc(-n3nccn3)c(C(F)(F)F)c2)cnc2sc(C)nc12)C1CC1 (single isomer, unassigned) [Compound 153b, 1-(4-(2H-1,2,3-Triazol-2-yl)-3-(trifluoromethyl)phenyl)-3-(7-(cyclopropyl(methoxy)methyl)-2-methylthiazolo[5,4-b]pyridin-6-yl)urea]
IC50 [1]: 1 to 100 nM
IC50 (OCI-Ly-10 cells): 26 to 100 nM
IC50 (full length MALT1 enzyme): 1 to 50 nM

COC(C)c1c(NC(=O)Nc2ccc(-n3nccn3)c(Cl)c2)cnc2sc(C)nc12 (single isomer, unassigned) [Compound 158b, 1-(3-Chloro-4-(2H-1,2,3-triazol-2-yl)phenyl)-3-(7-(1-methoxyethyl)-2-methylthiazolo[5,4-b]pyridin-6-yl)urea]
IC50 [1]: 1 to 100 nM
IC50 (OCI-Ly-10 cells): 0.1 to 25 nM
IC50 (full length MALT1 enzyme): 1 to 50 nM

CCOC(C)c1c(NC(=O)Nc2cnc(-n3nccn3)c(C(F)(F)F)c2)cnc2sc(C)nc12 (single isomer, unassigned) [Compound 165b, 1-(6-(2H-1,2,3-Triazol-2-yl)-5-(trifluoromethyl)pyridin-3-yl)-3-(7-(1-ethoxyethyl)-2-methylthiazolo[5,4-b]pyridin-6-yl)urea]
IC50 [1]: 1 to 100 nM
IC50 (OCI-Ly-10 cells): 26 to 100 nM
IC50 (full length MALT1 enzyme): 1 to 50 nM

COC(C)c1c(NC(=O)Nc2ccc(-n3cccn3)c(Cl)c2)cnc2sc(C)nc12 (single isomer, unassigned) [Compound 201b, (S) or (R)-1-(3-Chloro-4-(1H-pyrazol-1-yl)phenyl)-3-(7-(1-methoxyethyl)-2-methylthiazolo[5,4-b]pyridin-6-yl)urea]
IC50 (OCI-Ly-10 cells): 26 to 100 nM
IC50 (full length MALT1 enzyme): 1 to 50 nM
